Test results taken from ChEMBL document CHEMBL1201862, “PubChem BioAssay data set” (2004).
Activity calls are given as the source filed them.

Assays:
[1] = biological target: DNA dC->dU-editing enzyme APOBEC-3A (Homo sapiens, UniProt P31941); assay: Dose Response confirmation of small molecule APOBEC3A DNA Deaminase Inhibitors via a fluorescence-based single-stranded DNA deaminase assay. [Related pubchem assays (depositor defined):AID493011, AID493024]; assay type: functional
[2] = biological target: DNA dC->dU-editing enzyme APOBEC-3G (Homo sapiens, UniProt Q9HC16); assay type: functional;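 also: Dose-response counterscreen measuring inhibition of APOBEC3G DNA deaminase activity, run while confirming APOBEC3A inhibitors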
Chain of DNA dC->dU-editing enzyme APOBEC-3G (Q9HC16 whole entry, the tested form may be a part): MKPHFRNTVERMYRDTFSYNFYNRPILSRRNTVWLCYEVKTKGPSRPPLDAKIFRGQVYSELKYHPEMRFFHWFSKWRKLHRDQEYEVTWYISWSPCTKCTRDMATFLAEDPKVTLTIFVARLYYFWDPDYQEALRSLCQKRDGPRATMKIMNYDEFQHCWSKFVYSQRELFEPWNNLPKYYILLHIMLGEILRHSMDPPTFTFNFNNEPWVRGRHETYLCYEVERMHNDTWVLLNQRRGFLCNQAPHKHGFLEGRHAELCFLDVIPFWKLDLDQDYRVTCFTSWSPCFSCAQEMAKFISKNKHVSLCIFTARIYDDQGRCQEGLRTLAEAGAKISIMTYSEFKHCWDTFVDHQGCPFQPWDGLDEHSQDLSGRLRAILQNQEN

[3] = biological target: T1, Carboxy-terminal domain RNA polymerase II polypeptide A small phosphatase 1 (Homo sapiens, UniProt Q9GZU7); assay: inhibitors of CTDSP1, concentration-response testing, biochemical assay, absorbance-based, actives from ultra-high-throughput screening (AID 540297); assay type: functional
T1 sequence (Q9GZU7 whole entry): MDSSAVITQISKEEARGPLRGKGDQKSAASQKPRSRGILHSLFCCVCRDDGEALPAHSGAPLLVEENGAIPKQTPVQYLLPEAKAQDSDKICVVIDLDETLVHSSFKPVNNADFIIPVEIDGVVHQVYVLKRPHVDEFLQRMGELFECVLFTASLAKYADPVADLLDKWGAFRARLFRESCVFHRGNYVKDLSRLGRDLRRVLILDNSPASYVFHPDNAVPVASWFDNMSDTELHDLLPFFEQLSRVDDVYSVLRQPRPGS

[4] = biological target: Peroxisome proliferator-activated receptor gamma/Nuclear receptor coactivator 1 (Homo sapiens, UniProt P37231); assay: (§1) TR-FRET dose response biochemical High Throughput Screening assay for agonists of the steroid receptor coactivator 1 (SRC-1) recruitment by the peroxisome proliferator-activated receptor gamma (PPAR gamma): non-selective agonists. [Related pubchem assays (depositor defined):AID1300, AID1808, AID504735, AID631]; assay type: protein assay
[5] = biological target: Peroxisome proliferator-activated receptor gamma/Nuclear receptor coactivator 3 (Homo sapiens, UniProt P37231); assay: as §1, with “3 (SRC-3)” for “1 (SRC-1)”, “assays: 1301 (Confirmation screen.), 1048 (Primary screen.)]” for “assays (depositor defined):AID1300, AID1808, AID504735, AID631]”; assay type: functional
Chain of Peroxisome proliferator-activated receptor gamma/Nuclear receptor coactivator 3 (P37231 whole entry): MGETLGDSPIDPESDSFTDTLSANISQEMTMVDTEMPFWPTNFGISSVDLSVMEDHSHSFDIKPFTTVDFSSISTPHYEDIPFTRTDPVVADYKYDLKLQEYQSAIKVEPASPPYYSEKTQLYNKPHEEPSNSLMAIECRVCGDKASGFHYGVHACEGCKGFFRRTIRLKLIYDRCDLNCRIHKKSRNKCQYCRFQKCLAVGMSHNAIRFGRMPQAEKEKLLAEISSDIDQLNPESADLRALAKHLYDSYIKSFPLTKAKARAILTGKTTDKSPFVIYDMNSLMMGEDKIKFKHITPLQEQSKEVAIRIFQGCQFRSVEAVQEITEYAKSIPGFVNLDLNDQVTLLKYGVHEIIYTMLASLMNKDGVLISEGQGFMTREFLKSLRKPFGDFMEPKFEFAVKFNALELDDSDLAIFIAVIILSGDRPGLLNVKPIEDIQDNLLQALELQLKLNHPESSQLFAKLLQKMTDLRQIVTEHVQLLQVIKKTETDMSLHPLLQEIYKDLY
Chain of Peroxisome proliferator-activated receptor gamma/Nuclear receptor coactivator 3 (Q9Y6Q9 whole entry, further chain): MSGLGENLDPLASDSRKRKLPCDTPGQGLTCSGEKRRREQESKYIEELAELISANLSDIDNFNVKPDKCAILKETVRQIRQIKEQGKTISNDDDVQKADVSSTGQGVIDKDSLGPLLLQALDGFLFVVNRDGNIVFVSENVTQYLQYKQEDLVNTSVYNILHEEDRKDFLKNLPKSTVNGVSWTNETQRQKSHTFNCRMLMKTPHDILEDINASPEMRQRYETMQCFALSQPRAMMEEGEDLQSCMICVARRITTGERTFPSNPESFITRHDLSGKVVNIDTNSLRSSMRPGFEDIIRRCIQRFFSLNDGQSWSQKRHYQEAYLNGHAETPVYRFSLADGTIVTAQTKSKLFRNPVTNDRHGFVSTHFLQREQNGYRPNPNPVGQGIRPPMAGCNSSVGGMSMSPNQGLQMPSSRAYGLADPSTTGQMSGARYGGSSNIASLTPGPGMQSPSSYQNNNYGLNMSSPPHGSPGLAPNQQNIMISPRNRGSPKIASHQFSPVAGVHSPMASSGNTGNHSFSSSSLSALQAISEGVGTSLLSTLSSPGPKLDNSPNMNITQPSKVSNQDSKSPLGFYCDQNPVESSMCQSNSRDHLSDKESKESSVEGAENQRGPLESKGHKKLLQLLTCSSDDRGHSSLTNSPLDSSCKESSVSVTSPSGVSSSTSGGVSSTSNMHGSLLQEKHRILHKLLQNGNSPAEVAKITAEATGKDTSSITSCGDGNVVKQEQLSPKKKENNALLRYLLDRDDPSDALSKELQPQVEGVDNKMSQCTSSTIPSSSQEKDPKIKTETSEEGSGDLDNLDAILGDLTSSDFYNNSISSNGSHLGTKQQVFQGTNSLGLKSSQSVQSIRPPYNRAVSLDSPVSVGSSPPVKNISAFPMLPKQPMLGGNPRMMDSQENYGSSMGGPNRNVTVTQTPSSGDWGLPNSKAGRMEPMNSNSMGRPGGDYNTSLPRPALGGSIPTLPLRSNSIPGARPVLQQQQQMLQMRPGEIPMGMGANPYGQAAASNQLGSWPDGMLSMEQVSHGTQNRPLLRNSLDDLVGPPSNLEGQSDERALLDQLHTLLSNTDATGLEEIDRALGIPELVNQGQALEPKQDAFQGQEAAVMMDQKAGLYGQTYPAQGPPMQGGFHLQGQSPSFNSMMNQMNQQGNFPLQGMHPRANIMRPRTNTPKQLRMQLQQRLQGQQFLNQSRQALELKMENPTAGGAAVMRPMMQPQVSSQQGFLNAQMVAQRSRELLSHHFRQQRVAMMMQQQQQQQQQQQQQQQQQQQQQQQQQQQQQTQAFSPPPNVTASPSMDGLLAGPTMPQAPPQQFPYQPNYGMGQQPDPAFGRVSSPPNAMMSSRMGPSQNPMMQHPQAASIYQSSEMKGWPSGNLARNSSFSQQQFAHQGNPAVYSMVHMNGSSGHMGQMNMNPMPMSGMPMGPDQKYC

[6] = biological target: Peroxisome proliferator-activated receptor gamma/Nuclear receptor coactivator 2 (Homo sapiens, UniProt P37231); assay: TR-FRET dose response biochemical High Throughput Screening assay for agonists of the steroid receptor coactivator 2 (SRC-2) recruitment by the peroxisome proliferator-activated receptor gamma (PPAR gamma): non-selective agonists. [Related pubchem assays: 1297, 1032 ]; assay type: functional
Chain of Peroxisome proliferator-activated receptor gamma/Nuclear receptor coactivator 2 (P37231 whole entry): as the sequence (P37231 whole entry) above
Chain of Peroxisome proliferator-activated receptor gamma/Nuclear receptor coactivator 2 (Q15596 whole entry, further chain): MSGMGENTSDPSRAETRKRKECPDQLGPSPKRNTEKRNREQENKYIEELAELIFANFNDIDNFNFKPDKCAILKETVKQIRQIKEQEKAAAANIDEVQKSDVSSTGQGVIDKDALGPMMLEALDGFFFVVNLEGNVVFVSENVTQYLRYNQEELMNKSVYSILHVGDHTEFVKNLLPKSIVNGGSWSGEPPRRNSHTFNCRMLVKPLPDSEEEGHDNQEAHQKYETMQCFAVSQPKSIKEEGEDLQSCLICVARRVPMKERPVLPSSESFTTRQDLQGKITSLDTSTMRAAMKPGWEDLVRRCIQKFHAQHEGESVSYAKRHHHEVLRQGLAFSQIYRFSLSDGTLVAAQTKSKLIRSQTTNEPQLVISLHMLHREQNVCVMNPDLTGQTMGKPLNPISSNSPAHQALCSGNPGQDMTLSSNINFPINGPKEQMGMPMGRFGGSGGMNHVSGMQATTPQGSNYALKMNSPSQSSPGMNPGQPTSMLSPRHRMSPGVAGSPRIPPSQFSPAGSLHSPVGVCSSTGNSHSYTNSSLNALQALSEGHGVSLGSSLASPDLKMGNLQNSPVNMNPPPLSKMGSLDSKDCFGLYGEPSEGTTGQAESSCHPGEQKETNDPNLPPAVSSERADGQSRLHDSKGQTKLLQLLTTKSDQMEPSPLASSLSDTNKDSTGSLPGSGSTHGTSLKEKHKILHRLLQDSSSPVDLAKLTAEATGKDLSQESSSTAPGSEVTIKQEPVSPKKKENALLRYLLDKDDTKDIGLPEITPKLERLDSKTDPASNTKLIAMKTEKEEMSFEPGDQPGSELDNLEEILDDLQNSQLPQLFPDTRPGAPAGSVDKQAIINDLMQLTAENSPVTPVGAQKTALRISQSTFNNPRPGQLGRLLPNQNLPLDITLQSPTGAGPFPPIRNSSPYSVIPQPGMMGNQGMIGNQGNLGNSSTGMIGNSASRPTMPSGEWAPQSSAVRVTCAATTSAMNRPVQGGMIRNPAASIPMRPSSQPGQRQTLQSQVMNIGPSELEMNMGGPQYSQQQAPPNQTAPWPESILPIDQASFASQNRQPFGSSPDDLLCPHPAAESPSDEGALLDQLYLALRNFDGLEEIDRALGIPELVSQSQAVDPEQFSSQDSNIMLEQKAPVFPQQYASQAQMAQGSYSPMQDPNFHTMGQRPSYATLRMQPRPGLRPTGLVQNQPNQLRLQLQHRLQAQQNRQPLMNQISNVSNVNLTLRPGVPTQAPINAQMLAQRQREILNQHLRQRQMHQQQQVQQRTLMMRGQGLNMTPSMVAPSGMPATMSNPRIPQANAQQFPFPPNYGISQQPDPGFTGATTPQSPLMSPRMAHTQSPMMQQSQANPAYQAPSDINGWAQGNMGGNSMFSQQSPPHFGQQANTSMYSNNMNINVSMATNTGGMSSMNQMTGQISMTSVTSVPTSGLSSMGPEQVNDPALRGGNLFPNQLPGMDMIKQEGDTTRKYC

[7] = A Cell Based Secondary Assay To Explore Cytotoxicity of Compounds that Sensitize Mycobacterium Tuberculosis to Beta-Lactam Antibiotics.; assay type: functional
[8] = growth suppression of PTEN-null colon cells, dose response, cell-based, HCT116 PTEN knockout (AID 1047); assay type: functional;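 also: HCT116 colon tumor cells with PTEN knocked out; cells exposed to compound for 60 hours before readout; potency for loss of cell viability measured by luminescence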
[9] = growth suppression of beta-catenin-knockout colon cells, dose response, cell-based, HCT116, human colon tumor (AID 1045); assay type: functional;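 also: HCT116 colon tumor cells with beta catenin knocked out; cells exposed to compound for 60 hours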
[10] = biological target: T2, Replicative DNA helicase DnaB (Mycobacterium tuberculosis, UniProt P9WMR3); assay: DnaB intein splicing inhibitors, dose response, biochemical, cell-free fluorescence (AID 449749); assay type: functional
T2 sequence (P9WMR3 whole entry): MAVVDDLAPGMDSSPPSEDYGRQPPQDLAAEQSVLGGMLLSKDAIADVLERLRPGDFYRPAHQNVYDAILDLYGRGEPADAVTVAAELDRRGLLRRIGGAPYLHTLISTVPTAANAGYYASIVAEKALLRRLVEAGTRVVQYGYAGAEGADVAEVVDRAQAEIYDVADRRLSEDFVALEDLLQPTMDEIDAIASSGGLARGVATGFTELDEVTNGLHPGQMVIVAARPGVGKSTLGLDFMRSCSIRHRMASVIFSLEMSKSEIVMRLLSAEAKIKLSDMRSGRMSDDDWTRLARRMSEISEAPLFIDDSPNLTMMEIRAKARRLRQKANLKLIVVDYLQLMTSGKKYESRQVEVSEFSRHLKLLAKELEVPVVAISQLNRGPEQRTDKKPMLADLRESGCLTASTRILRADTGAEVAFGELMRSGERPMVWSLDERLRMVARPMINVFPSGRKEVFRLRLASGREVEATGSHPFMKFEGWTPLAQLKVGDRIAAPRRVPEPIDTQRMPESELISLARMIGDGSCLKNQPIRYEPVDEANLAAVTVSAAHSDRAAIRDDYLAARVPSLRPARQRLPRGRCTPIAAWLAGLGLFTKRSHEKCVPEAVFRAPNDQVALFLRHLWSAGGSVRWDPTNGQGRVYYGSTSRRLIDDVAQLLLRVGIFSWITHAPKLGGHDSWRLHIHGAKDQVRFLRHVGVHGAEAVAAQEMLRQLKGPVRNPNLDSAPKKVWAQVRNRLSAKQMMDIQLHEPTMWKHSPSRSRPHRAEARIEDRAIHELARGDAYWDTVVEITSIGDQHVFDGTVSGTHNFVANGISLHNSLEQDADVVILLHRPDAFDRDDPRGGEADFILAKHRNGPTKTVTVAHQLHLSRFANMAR

Protein RecA = biological target: T3, Protein RecA (Mycobacterium tuberculosis, UniProt P9WHJ3); assay: Fluorescence Cell-Free Homogeneous Dose Retest to Identify Inhibitors of RecA-Intein Splicing Activity. [Related pubchem assays (depositor defined):AID2097, AID2223, AID489010, AID492950]; assay type: functional
T3 sequence (P9WHJ3 whole entry): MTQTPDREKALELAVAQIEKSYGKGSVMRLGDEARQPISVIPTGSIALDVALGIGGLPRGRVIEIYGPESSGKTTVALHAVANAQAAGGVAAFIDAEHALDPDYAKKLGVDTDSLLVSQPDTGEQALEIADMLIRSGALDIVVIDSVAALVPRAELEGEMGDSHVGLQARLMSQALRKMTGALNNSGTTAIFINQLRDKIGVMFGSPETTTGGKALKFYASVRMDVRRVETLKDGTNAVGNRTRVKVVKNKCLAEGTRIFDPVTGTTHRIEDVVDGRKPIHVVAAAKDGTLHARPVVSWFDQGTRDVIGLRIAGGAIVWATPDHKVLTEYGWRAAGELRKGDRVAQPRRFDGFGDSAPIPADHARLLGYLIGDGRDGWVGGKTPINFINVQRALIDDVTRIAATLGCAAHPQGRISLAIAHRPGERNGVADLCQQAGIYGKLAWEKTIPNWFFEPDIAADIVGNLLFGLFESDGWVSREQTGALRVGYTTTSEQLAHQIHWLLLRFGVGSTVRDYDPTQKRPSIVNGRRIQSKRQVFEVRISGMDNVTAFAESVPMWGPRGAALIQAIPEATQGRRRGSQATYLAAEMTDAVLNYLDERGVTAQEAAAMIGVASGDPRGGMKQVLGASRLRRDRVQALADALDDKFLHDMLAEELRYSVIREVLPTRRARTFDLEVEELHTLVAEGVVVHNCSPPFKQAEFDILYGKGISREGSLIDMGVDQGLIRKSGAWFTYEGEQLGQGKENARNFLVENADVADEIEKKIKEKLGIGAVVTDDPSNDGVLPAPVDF

Leucine aminopeptidase = biological target: T4, Leucine aminopeptidase (Plasmodium falciparum 3D7, UniProt Q8IL11); assay: P. falciparum M17LAP inhibitors, primary screen, biochemical, fluorogenic H-Leu-NHMec substrate, 1536-well (AID 1619); assay type: functional
T4 sequence (Q8IL11 whole entry): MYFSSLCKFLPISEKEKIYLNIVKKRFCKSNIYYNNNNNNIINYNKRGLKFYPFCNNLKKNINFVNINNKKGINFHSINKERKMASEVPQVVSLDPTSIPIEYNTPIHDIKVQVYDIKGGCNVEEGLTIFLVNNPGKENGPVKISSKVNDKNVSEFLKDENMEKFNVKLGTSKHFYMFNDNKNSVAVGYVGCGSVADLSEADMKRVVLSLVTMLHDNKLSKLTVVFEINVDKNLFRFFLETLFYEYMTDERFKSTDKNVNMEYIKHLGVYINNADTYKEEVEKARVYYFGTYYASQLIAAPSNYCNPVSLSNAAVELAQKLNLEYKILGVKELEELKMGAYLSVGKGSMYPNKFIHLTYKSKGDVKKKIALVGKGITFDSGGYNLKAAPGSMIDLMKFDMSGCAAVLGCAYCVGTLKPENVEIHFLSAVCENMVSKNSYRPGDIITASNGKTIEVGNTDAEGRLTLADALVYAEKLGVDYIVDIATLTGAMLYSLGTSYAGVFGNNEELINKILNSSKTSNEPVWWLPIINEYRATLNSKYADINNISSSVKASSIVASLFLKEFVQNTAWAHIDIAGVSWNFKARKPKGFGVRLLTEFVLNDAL

[11] = biological target: T5, Heat shock factor protein 1 (Mus musculus, UniProt P38532); assay: inhibition of MG132-induced HSE-luciferase signal, confirmation, cell-based, NIH3T3, luminescence, dose retest (AID 2382); assay type: functional;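 also: NIH3T3 fibroblasts with HSF1-driven luciferase reporter stressed by proteasome inhibitor MG132; luminescence from HSF1-driven luciferase expression after 8 hours of MG132 stress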
T5 sequence (P38532 whole entry): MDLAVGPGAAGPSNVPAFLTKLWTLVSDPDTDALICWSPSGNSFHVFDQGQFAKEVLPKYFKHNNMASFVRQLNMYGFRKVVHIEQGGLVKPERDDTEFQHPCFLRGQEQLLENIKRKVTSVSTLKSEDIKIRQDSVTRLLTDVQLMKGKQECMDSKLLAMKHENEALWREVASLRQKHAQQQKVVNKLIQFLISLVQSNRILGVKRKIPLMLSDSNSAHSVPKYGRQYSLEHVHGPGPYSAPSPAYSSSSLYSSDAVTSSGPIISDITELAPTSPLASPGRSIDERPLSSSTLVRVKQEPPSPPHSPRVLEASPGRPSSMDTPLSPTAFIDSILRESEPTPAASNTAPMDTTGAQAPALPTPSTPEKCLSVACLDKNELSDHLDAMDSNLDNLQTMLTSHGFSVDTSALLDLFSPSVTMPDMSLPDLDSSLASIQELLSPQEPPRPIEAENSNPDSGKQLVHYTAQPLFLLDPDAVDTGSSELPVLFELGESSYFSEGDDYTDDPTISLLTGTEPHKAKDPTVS

[12] = biological target: T6, Short transient receptor potential channel 4 (Mus musculus, UniProt Q9QUQ5); assay: mouse TRPC4 channel activators, dose response, cell-based, HEK293 TRPC4/mu-opioid, Fluo-4 calcium (AID 434937); assay type: functional
T6 sequence (Q9QUQ5 whole entry): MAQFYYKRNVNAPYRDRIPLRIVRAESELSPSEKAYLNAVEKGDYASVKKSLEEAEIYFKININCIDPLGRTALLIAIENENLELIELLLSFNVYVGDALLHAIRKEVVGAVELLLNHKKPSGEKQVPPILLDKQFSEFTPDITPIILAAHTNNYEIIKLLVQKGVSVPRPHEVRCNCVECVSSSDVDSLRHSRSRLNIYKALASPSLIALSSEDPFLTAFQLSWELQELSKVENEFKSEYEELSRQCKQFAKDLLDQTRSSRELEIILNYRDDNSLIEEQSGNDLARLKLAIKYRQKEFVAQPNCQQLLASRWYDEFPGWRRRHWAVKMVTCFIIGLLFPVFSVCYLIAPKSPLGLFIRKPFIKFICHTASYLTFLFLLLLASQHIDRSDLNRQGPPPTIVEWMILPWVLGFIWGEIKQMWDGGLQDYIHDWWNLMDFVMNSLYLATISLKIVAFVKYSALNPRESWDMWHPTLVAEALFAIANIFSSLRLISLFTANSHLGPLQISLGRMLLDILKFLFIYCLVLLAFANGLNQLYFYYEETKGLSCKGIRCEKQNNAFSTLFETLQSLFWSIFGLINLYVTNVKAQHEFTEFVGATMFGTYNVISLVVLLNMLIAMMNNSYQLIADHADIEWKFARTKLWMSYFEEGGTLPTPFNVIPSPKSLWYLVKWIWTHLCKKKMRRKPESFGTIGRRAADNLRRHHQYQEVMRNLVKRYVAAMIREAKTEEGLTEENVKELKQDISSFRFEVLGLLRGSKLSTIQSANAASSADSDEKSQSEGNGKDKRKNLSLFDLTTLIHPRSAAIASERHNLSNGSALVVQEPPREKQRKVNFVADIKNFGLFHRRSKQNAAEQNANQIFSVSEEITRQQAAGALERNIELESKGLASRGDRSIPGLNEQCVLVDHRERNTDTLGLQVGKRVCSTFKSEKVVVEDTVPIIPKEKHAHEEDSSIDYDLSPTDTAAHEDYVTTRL

Chain of DNA dC->dU-editing enzyme APOBEC-3A (P31941 whole entry): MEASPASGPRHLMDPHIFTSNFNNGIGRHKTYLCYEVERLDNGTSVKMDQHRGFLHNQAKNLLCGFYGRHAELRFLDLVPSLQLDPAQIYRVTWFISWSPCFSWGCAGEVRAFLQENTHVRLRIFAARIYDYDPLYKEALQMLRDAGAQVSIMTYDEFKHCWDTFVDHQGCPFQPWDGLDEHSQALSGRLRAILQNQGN

## O=C(CSc1nc2sccc2c(=O)[nH]1)N1CCN(c2ccccc2)CC1
[1]
  IC50: 11.5 µM (active)
[2]
  IC50: 9.27 µM (active)
[3]
  IC50: 10.7 µM (active)

## CCn1c(=O)cc(SCC(=O)Nc2cccc(C)n2)c2ccccc21
[4]
  EC50: > 79.4 µM (inactive)
[5]
  EC50: > 79.4 µM (not active)
[6]
  EC50: > 79.4 µM (not active)

## O=S(=O)(Cc1ccccc1)c1cnc2ccccc2n1
[7]
  CC50: 34 µM (active)
[8]
  EC50: 14.1 µM (active)
[9]
  EC50: 12.2 µM (active)
[10]
  AC50: > 380 µM (inactive)
Protein RecA
  EC50: 18.3 µM (active)

## COc1ccc(NC(=O)COc2ccc(/C=C/c3cc[n+](C)cc3)cc2OC)cc1
[1]
  IC50: 3.69 µM (active)
[2]
  IC50: 3.92 µM (active)

## CCc1noc(C)c1C(=O)Nc1cc(S(=O)(=O)N2CCOCC2)ccc1N1CCN(CC)CC1
[1]
  IC50: 3.46 µM (active)
[2]
  IC50: 5.53 µM (active)

## COC(=O)c1c(N=C(S)Nc2ccc(CC(=O)O)cc2)sc(C)c1C
[4]
  EC50: 13.3 µM (inactive)
[5]
  EC50: > 79.4 µM (not active)
[6]
  EC50: 9.39 µM (active)

## Cc1cccc(C(=O)NC(=S)NNC(=O)c2ccccc2Cl)c1
Leucine aminopeptidase
  IC50: 58 µM (active)
[11]
  EC50: > 195 µM (not active)
[12]
  EC50: 1.68 µM (active)

## C=CCn1c(=S)[nH]c2scc(-c3cccs3)c2c1=O
[4]
  EC50: 4.03 µM (active)
[5]
  EC50: > 79.4 µM (not active)
[6]
  EC50: 5.27 µM (active)

## Cc1nc(NCC(c2ccccc2)N(C)C)c2c(C)c(C)sc2n1 (stereo unspecified)
[12]
  EC50: 0.335 µM (active)

## Cc1sc2ncnc(NCC(c3ccccc3)N(C)C)c2c1C (stereo unspecified)
[12]
  EC50: 0.237 µM (active)
